Laboratory results as given in ChEMBL document CHEMBL3745676, “Alkylamino derivatives of N-benzylpyrazine-2-carboxamide: synthesis and antimycobacterial evaluation” (Medchemcomm, 2015).
In brackets after ≈: the same amount, converted by molar mass.

Assays:
Assay type in all cases: functional
[1] = tested on: Mycobacterium tuberculosis; assay: Antimycobacterial activity against multi-drug resistant Mycobacterium tuberculosis 234/2005 after 14 days by microplate dilution method; settings: 234/2005, 336 h
[2] = tested on: Mycobacterium tuberculosis; assay: Antimycobacterial activity against multi-drug resistant Mycobacterium tuberculosis 8666/2010 after 21 days by microplate dilution method; settings: 8666/2010, 504 h
[3] = tested on: Mycobacterium tuberculosis; assay: Antimycobacterial activity against multi-drug resistant Mycobacterium tuberculosis Praha 131 after 14 days by microplate dilution method; settings: Praha 131, 336 h
[4] = tested on: Mycobacterium tuberculosis; assay: Antimycobacterial activity against multi-drug resistant Mycobacterium tuberculosis 234/2005 after 21 days by microplate dilution method; settings: 234/2005, 504 h
[5] = tested on: Mycobacterium tuberculosis; assay: Antimycobacterial activity against multi-drug resistant Mycobacterium tuberculosis Praha 4 after 14 days by microplate dilution method; settings: Praha 4, 336 h
[6] = tested on: Mycobacterium tuberculosis; assay: Antimycobacterial activity against multi-drug resistant Mycobacterium tuberculosis 9449/2007 after 21 days by microplate dilution method; settings: 9449/2007, 504 h
[7] = tested on: Mycobacterium tuberculosis; assay: Antimycobacterial activity against multi-drug resistant Mycobacterium tuberculosis 7357/1998 after 14 days by microplate dilution method; settings: 7357/1998, 336 h
[8] = tested on: Mycobacterium tuberculosis; assay: Antimycobacterial activity against multi-drug resistant Mycobacterium tuberculosis Praha 1 after 14 days by microplate dilution method; settings: Praha 1, 336 h
[9] = tested on: Mycobacterium tuberculosis; assay: Antimycobacterial activity against multi-drug resistant Mycobacterium tuberculosis 8666/2010 after 14 days by microplate dilution method; settings: 8666/2010, 336 h
[10] = tested on: Mycobacterium tuberculosis; assay: Antimycobacterial activity against multi-drug resistant Mycobacterium tuberculosis 9449/2007 after 14 days by microplate dilution method; settings: 9449/2007, 336 h
[11] = tested on: Mycobacterium tuberculosis; assay: Antimycobacterial activity against multi-drug resistant Mycobacterium tuberculosis Praha 131 after 21 days by microplate dilution method; settings: Praha 131, 504 h
[12] = tested on: Mycobacterium tuberculosis; assay: Antimycobacterial activity against multi-drug resistant Mycobacterium tuberculosis 7357/1998 after 21 days by microplate dilution method; settings: 7357/1998, 504 h
[13] = tested on: Mycobacterium tuberculosis; assay: Antimycobacterial activity against multi-drug resistant Mycobacterium tuberculosis Praha 1 after 21 days by microplate dilution method; settings: Praha 1, 504 h
[14] = tested on: Mycobacterium tuberculosis; assay: Antimycobacterial activity against multi-drug resistant Mycobacterium tuberculosis Praha 4 after 21 days by microplate dilution method; settings: Praha 4, 504 h

Row | Structure (SMILES) | MIC [1] [µM] | MIC [2] [µM] | MIC [3] [µM] | MIC [4] [µM] | MIC [5] [µM] | MIC [6] [µM] | MIC [7] [µM] | MIC [8] [µM] | MIC [9] [µM] | MIC [10] [µM] | MIC [11] [µM] | MIC [12] [µM] | MIC [13] [µM] | MIC [14] [µM]
1 | CCCCCCCNc1cnc(C(=O)NCc2ccccc2)cn1 | 4 (≈ 1.31 µg/mL) | 4 (≈ 1.31 µg/mL) | 2 (≈ 0.653 µg/mL) | 4 (≈ 1.31 µg/mL) | 4 (≈ 1.31 µg/mL) | 8 (≈ 2.61 µg/mL) | 4 (≈ 1.31 µg/mL) | 4 (≈ 1.31 µg/mL) | 4 (≈ 1.31 µg/mL) | 4 (≈ 1.31 µg/mL) | 4 (≈ 1.31 µg/mL) | 8 (≈ 2.61 µg/mL) | 4 (≈ 1.31 µg/mL) | 8 (≈ 2.61 µg/mL)
2 | CCCCCNc1cncc(C(=O)NCc2ccccc2)n1 | 62.5 (≈ 18.6 µg/mL) | 62.5 (≈ 18.6 µg/mL) | 32 (≈ 9.55 µg/mL) | 62.5 (≈ 18.6 µg/mL) | 32 (≈ 9.55 µg/mL) | 62.5 (≈ 18.6 µg/mL) | 32 (≈ 9.55 µg/mL) | 62.5 (≈ 18.6 µg/mL) | 62.5 (≈ 18.6 µg/mL) | 32 (≈ 9.55 µg/mL) | 62.5 (≈ 18.6 µg/mL) | 62.5 (≈ 18.6 µg/mL) | 62.5 (≈ 18.6 µg/mL) | 62.5 (≈ 18.6 µg/mL)
3 | CCCCCCNc1cncc(C(=O)NCc2ccccc2)n1 | 16 (≈ 5 µg/mL) | 32 (≈ 10 µg/mL) | 16 (≈ 5 µg/mL) | 32 (≈ 10 µg/mL) | 32 (≈ 10 µg/mL) | 32 (≈ 10 µg/mL) | 32 (≈ 10 µg/mL) | 16 (≈ 5 µg/mL) | 16 (≈ 5 µg/mL) | 32 (≈ 10 µg/mL) | 32 (≈ 10 µg/mL) | 32 (≈ 10 µg/mL) | 32 (≈ 10 µg/mL) | 32 (≈ 10 µg/mL)
4 | NNC(=O)c1ccncc1 [ISONIAZID] | 16 (≈ 2.19 µg/mL) | 32 (≈ 4.39 µg/mL) | 16 (≈ 2.19 µg/mL) | 16 (≈ 2.19 µg/mL) | 16 (≈ 2.19 µg/mL) | 16 (≈ 2.19 µg/mL) | 16 (≈ 2.19 µg/mL) | 16 (≈ 2.19 µg/mL) | 16 (≈ 2.19 µg/mL) | 16 (≈ 2.19 µg/mL) | 16 (≈ 2.19 µg/mL) | 32 (≈ 4.39 µg/mL) | 16 (≈ 2.19 µg/mL) | 16 (≈ 2.19 µg/mL)
5 | CCCCNc1nccnc1C(=O)NCc1ccccc1 | 125 (≈ 35.5 µg/mL) | 250 (≈ 71.1 µg/mL) | 125 (≈ 35.5 µg/mL) | 250 (≈ 71.1 µg/mL) | 125 (≈ 35.5 µg/mL) | 250 (≈ 71.1 µg/mL) | 125 (≈ 35.5 µg/mL) | 125 (≈ 35.5 µg/mL) | 125 (≈ 35.5 µg/mL) | 125 (≈ 35.5 µg/mL) | 250 (≈ 71.1 µg/mL) | 250 (≈ 71.1 µg/mL) | 125 (≈ 35.5 µg/mL) | 125 (≈ 35.5 µg/mL)
6 | CCCCCCCCNc1cncc(C(=O)NCc2ccccc2)n1 | 16 (≈ 5.45 µg/mL) | 16 (≈ 5.45 µg/mL) | 16 (≈ 5.45 µg/mL) | 16 (≈ 5.45 µg/mL) | 16 (≈ 5.45 µg/mL) | 16 (≈ 5.45 µg/mL) | 16 (≈ 5.45 µg/mL) | 16 (≈ 5.45 µg/mL) | 16 (≈ 5.45 µg/mL) | 16 (≈ 5.45 µg/mL) | 16 (≈ 5.45 µg/mL) | 16 (≈ 5.45 µg/mL) | 16 (≈ 5.45 µg/mL) | 16 (≈ 5.45 µg/mL)
7 | CCCCCCCCNc1cnc(C(=O)NCc2ccccc2)cn1 | 4 (≈ 1.36 µg/mL) | 8 (≈ 2.72 µg/mL) | 4 (≈ 1.36 µg/mL) | 8 (≈ 2.72 µg/mL) | 8 (≈ 2.72 µg/mL) | 8 (≈ 2.72 µg/mL) | 8 (≈ 2.72 µg/mL) | 4 (≈ 1.36 µg/mL) | 4 (≈ 1.36 µg/mL) | 8 (≈ 2.72 µg/mL) | 4 (≈ 1.36 µg/mL) | 8 (≈ 2.72 µg/mL) | 8 (≈ 2.72 µg/mL) | 8 (≈ 2.72 µg/mL)
8 | CCCCCNc1nccnc1C(=O)NCc1ccccc1 | 1000 (≈ 298 µg/mL) | > 1000 | 1000 (≈ 298 µg/mL) | > 1000 | 1000 (≈ 298 µg/mL) | > 1000 | 1000 (≈ 298 µg/mL) | 1000 (≈ 298 µg/mL) | 1000 (≈ 298 µg/mL) | 1000 (≈ 298 µg/mL) | > 1000 | > 1000 | > 1000 | > 1000
9 | CCCCCCCNc1nccnc1C(=O)NCc1ccccc1 | 1000 (≈ 326 µg/mL) | > 1000 | 1000 (≈ 326 µg/mL) | > 1000 | > 1000 | > 1000 | 1000 (≈ 326 µg/mL) | 1000 (≈ 326 µg/mL) | 1000 (≈ 326 µg/mL) | > 1000 | > 1000 | 1000 (≈ 326 µg/mL) | > 1000 | > 1000
10 | CCCCCNc1cnc(C(=O)NCc2ccccc2)cn1 | 16 (≈ 4.77 µg/mL) | 32 (≈ 9.55 µg/mL) | 16 (≈ 4.77 µg/mL) | 32 (≈ 9.55 µg/mL) | 16 (≈ 4.77 µg/mL) | 32 (≈ 9.55 µg/mL) | 16 (≈ 4.77 µg/mL) | 16 (≈ 4.77 µg/mL) | 16 (≈ 4.77 µg/mL) | 16 (≈ 4.77 µg/mL) | 16 (≈ 4.77 µg/mL) | 32 (≈ 9.55 µg/mL) | 32 (≈ 9.55 µg/mL) | 32 (≈ 9.55 µg/mL)
11 | CCCCCCCNc1cncc(C(=O)NCc2ccccc2)n1 | 16 (≈ 5.22 µg/mL) | 16 (≈ 5.22 µg/mL) | 8 (≈ 2.61 µg/mL) | 16 (≈ 5.22 µg/mL) | 8 (≈ 2.61 µg/mL) | 16 (≈ 5.22 µg/mL) | 16 (≈ 5.22 µg/mL) | 16 (≈ 5.22 µg/mL) | 16 (≈ 5.22 µg/mL) | 16 (≈ 5.22 µg/mL) | 16 (≈ 5.22 µg/mL) | 16 (≈ 5.22 µg/mL) | 16 (≈ 5.22 µg/mL) | 16 (≈ 5.22 µg/mL)
12 | CCCCNc1cnc(C(=O)NCc2ccccc2)cn1 | 125 (≈ 35.5 µg/mL) | 250 (≈ 71.1 µg/mL) | 62.5 (≈ 17.8 µg/mL) | 250 (≈ 71.1 µg/mL) | 62.5 (≈ 17.8 µg/mL) | 125 (≈ 35.5 µg/mL) | 125 (≈ 35.5 µg/mL) | 125 (≈ 35.5 µg/mL) | 125 (≈ 35.5 µg/mL) | 62.5 (≈ 17.8 µg/mL) | 125 (≈ 35.5 µg/mL) | 125 (≈ 35.5 µg/mL) | 250 (≈ 71.1 µg/mL) | 125 (≈ 35.5 µg/mL)
13 | CCCCNc1cncc(C(=O)NCc2ccccc2)n1 | 62.5 (≈ 17.8 µg/mL) | 62.5 (≈ 17.8 µg/mL) | 32 (≈ 9.1 µg/mL) | 62.5 (≈ 17.8 µg/mL) | 32 (≈ 9.1 µg/mL) | 125 (≈ 35.5 µg/mL) | 62.5 (≈ 17.8 µg/mL) | 62.5 (≈ 17.8 µg/mL) | 62.5 (≈ 17.8 µg/mL) | 62.5 (≈ 17.8 µg/mL) | 62.5 (≈ 17.8 µg/mL) | 62.5 (≈ 17.8 µg/mL) | 62.5 (≈ 17.8 µg/mL) | 62.5 (≈ 17.8 µg/mL)
14 | CCCCCCNc1nccnc1C(=O)NCc1ccccc1 | 1000 (≈ 312 µg/mL) | > 1000 | 1000 (≈ 312 µg/mL) | > 1000 | 1000 (≈ 312 µg/mL) | 1000 (≈ 312 µg/mL) | 1000 (≈ 312 µg/mL) | 1000 (≈ 312 µg/mL) | 1000 (≈ 312 µg/mL) | 1000 (≈ 312 µg/mL) | > 1000 | > 1000 | > 1000 | > 1000
15 | CCCCCCNc1cnc(C(=O)NCc2ccccc2)cn1 | 4 (≈ 1.25 µg/mL) | 8 (≈ 2.5 µg/mL) | 4 (≈ 1.25 µg/mL) | 8 (≈ 2.5 µg/mL) | 8 (≈ 2.5 µg/mL) | 8 (≈ 2.5 µg/mL) | 8 (≈ 2.5 µg/mL) | 4 (≈ 1.25 µg/mL) | 4 (≈ 1.25 µg/mL) | 8 (≈ 2.5 µg/mL) | 4 (≈ 1.25 µg/mL) | 8 (≈ 2.5 µg/mL) | 8 (≈ 2.5 µg/mL) | 8 (≈ 2.5 µg/mL)
16 | CCCCCCCCNc1nccnc1C(=O)NCc1ccccc1 | > 1000 | > 1000 | > 1000 | > 1000 | > 1000 | > 1000 | > 1000 | > 1000 | > 1000 | > 1000 | > 1000 | > 1000 | > 1000 | > 1000
